# Results taken from PMC2011259, “Pentamethylmelamine (PMM): Phase I clinical and pharmacokinetic studies” (British Journal of Cancer, 1983).
# Where two headings read alike, the source gives them in different places.
# Key:
# [1] = design: method as in Cumber & Ross, 1977; conditions: compared with N2,N4,N6-trimethyl-N2,N4,N6-trimethylolmelamine; ref Cumber & Ross, 1977; cited from earlier work
# [2] = design: method as in Rutty et al., 1982; conditions: rats; ref Rutty et al., 1982; cited from earlier work
# [3] = system: patients with malignant tumours; experiment: Phase I clinical evaluation of toxicity of PMM given as intravenous infusion; assay type: in vivo, man; design: key to Nausea/vomiting Intensity: Mild: Vomiting once or twice during the infusion and requiring no anti- emetics was classified as mild; Moderate: vomiting that persisted up to 6 h after infusion and requiring a maximum administration of two courses of anti- emetics was regarded as moderate; Severe: Vomiting was classified as severe if it continued up to 24 h after PMM infusion and/or could only be controlled partially by repeated doses of anti-emetics; conditions: for Nausea/vomiting Frequency: per courses
# Source text: (§1) Br. J. Cancer (1983), 47, 027-033 Pentamethylmelamine (PMM): Phase I clinical and pharmacokinetic studies J.R.F. Muindi*, D.R. Newellt, I.E. Smith* & K.R. Harrapt *Division of Medicine, Institute of Cancer Research and Royal Marsden Hospital, and the tDepartment of Biochemical Pharmacology, Institute of Cancer Research, Sutton, Surrey. […] PMM has been administered as an intravenous infusion to 17 patients in a Phase I clinical trial. […] In the present study the results of the Phase I clinical evaluation of PMM at the Royal Marsden Hospital are reported. In addition to the clinical assessment of patients, pharmacokinetic studies were also performed. […] (Broggini et al., 1981; Morimoto et al., 1980; Ames et al., 1979; Casper et al., 1981; Idhe et al., 1981; Benvenuto et al., 1981; Rutty et al., 1982). […] The mechanism of action of N-methylolmelamines is, however, still uncertain. To ascertain the rate and extent of PMM metabolism in man, plasma levels of the parent drug and the first two products of oxidative N- demethylation i.e. N2,N2,N4,N6-tetramethyl- melamine (TMM) and N2,N4,N6-trimethylmelamine (TRIMM) were measured (Figure 2). […] Materials and methods Patient selection The patients entered in the PMM Phase I clinical study were all under the care of the Royal Marsden Hospital. […] Additional criteria required for eligibility to enter into the study included: WBC and platelet count > 3000 uM I-' and > 100,000 pM 11 respectively; blood urea and serum creatinine < 8 mM ,M I1- and < 106 pM 1 respectively. None of the patients had received cancer chemotherapy or radiotherapy during the 3-week period preceding their entry into the study. […] The treatment protocol was approved by the Ethical Committee of the Royal Marsden Hospital and informed consent was obtained from all patients prior to entry into the study. […] It was supplied by Prof. W.C.J. Ross of the Chester Beatty Research Institute, London, as a white crystalline powder. PMM (2mg ml-') was infused intravenously as a 2% ethanol 5% dextrose solution after micropore (0.22 pm) filtration. All formulated PMM infusions were used within 24h of preparation, as a sterility precaution. PMM was initially given at a dose of […] and the dose escalated to 1300mgm-2 according to a modified Fibonacci scheme (Table II). At higher PMM doses, requiring large infusion volumes, the infusion time was extended from 1 to 4 h. No dose escalation was TRIMM CH3 Nc"N H 11 H Ii N N H CH3 HCHO 1. carried out in the same patient.
# [4] = design: method as in Rutty et al., 1982; conditions: patients of this trial, not detectable; ref Rutty et al., 1982; cited from earlier work
# [5] = Pharmacokinetic studies: plasma levels of PMM, TMM and TRIMM by gas liquid chromatography; assay type: in vivo, man; conditions: for half-life: intravenous
# Source text: as §1
# [6] = system: experimental tumour test systems; design: method as in earlier work; conditions: a number of experimental tumour test systems, ref Cumber & Ross, 1977, Connors et al., Goldin et al., 1981; cited from earlier work
# malignant tumours = experiment: Tumour response in the Phase I trial; assay type: in vivo, man
# Source text: Br. J. Cancer (1983), 47, 027-033 Pentamethylmelamine (PMM): Phase I clinical and pharmacokinetic studies J.R.F. Muindi*, D.R. Newellt, I.E. Smith* & K.R. Harrapt *Division of Medicine, Institute of Cancer Research and Royal Marsden Hospital, and the tDepartment of Biochemical Pharmacology, Institute of Cancer Research, Sutton, Surrey. […] PMM has been administered as an intravenous infusion to 17 patients in a Phase I clinical trial. […] In the present study the results of the Phase I clinical evaluation of PMM at the Royal Marsden Hospital are reported. In addition to the clinical assessment of patients, pharmacokinetic studies were also performed. […] (Broggini et al., 1981; Morimoto et al., 1980; Ames et al., 1979; Casper et al., 1981; Idhe et al., 1981; Benvenuto et al., 1981; Rutty et al., 1982). […] The mechanism of action of N-methylolmelamines is, however, still uncertain. To ascertain the rate and extent of PMM metabolism in man, plasma levels of the parent drug and the first two products of oxidative N- demethylation i.e. N2,N2,N4,N6-tetramethyl- melamine (TMM) and N2,N4,N6-trimethylmelamine (TRIMM) were measured (Figure 2). […] Materials and methods Patient selection The patients entered in the PMM Phase I clinical study were all under the care of the Royal Marsden Hospital. […]
# patients = conditions: cited from earlier work
# [7] = design: method as in Ames et al. (1979); conditions: rabbits, independent of the route (i.v. and oral); ref Ames et al. (1979); cited from earlier work
# [8] = design: method as in Rutty et al., 1982; conditions: mice; ref Rutty et al., 1982; cited from earlier work
compound,measurement,setting,value
"CNc1nc(N(C)C)nc(N(C)C)n1 [PMM, Pentamethylmelamine]",Chemical stability,[1],greater chemical stability
same,PMM metabolites capable of releasing formaldehyde in plasma,[2],211 yM
same,Nausea/vomiting Intensity,[3]; 100 mg m-2 i.v. infusion,Mild
same,Nausea/vomiting Frequency,"[3]; 100 mg m-2 i.v. infusion, 3 patients",0/7
same,Nausea/vomiting Frequency,"[3]; 200 mg m-2 i.v. infusion, 3 patients",1/7
same,Nausea/vomiting Intensity,[3]; 300 mg m-2 i.v. infusion,Moderate (vomiting that persisted up to 6 h after infusion and requiring a maximum administration of two courses of anti- emetics was regarded as moderate)
same,Nausea/vomiting Frequency,"[3]; 300 mg m-2 i.v. infusion, 3 patients",2/5
same,Patients with nausea and vomiting,[3]; 500 mg m-2 and above,all patients
same,Nausea/vomiting Frequency,"[3]; 500 mg m-2 i.v. infusion, 3 patients",8/8
same,Nausea/vomiting Intensity,[3]; 800 mg m-2 i.v. infusion,Severe (Vomiting was classified as severe if it continued up to 24 h after PMM infusion and/or could only be controlled partially by repeated doses of anti-emetics)
same,Nausea/vomiting Frequency,"[3]; 800 mg m-2 i.v. infusion, 3 patients",7/7
same,Duration of nausea and vomiting,[3]; 1300 mg m-2 i.v. infusion,> 24 h
same,Nausea/vomiting Frequency,"[3]; 1300 mg m-2 i.v. infusion, 2 patients",4/4
same,Severity of nausea and vomiting,"[3]; 1300 mg m-2 i.v. infusion, poorly controlled by anti-emetics",severe
same,Haematological toxicity,[3]; 100-1300 mg m-2 i.v. infusion,not observed
same,Hepatic toxicity,[3]; 100-1300 mg m-2 i.v. infusion,not observed
same,Renal toxicity,[3]; 100-1300 mg m-2 i.v. infusion,not observed
same,Acute neurological side effects,"[3]; doses below 500 mg m-2, not assessable at higher doses because of anti-emetics",no neurological side effects were observed
same,Dose-limiting toxicities,"[3]; i.v. infusion 100-1300 mg m-2, 3 weekly",nausea and vomiting
same,Pruritic erythematous maculopapular skin rashes,"[3]; one patient at 200 mg m-2 (2nd course), one at 1300 mg m-2, other medications possibly responsible",Two patients
same,PMM metabolites capable of releasing formaldehyde in plasma,[4],< 50 µM
same,Correlation (r) of plasma levels at the end of the infusion with dose,"[5]; 1 h infusion, 100-300 mg m-2, P = 0.005",0.94
same,half-life,"[5]; human, plasma, 100 mg m-2, patient six, 100 mg m-2, hepatic function normal, value + s.e., read-out: PMM plasma t1/2 (overall elimination phase)",0.902 h
same,half-life,"[5]; human, plasma, 200 mg m-2, patient five, 200 mg m-2, hepatic function abnormal, value + s.e., read-out: PMM plasma t1/2 (overall elimination phase)",2.25 h
same,half-life,"[5]; human, plasma, 300 mg m-2, patient eight, 300 mg m-2, hepatic function abnormal, value + s.e., read-out: PMM plasma t1/2 (overall elimination phase)",2.54 h
same,half-life,"[5]; human, plasma, 300 mg m-2, patient one, 300 mg m-2, hepatic function normal, value + s.e., read-out: PMM plasma t1/2 (overall elimination phase)",1.21 h
same,half-life,"[5]; human, plasma, 500 mg m-2, patient seven, 500 mg m-2, hepatic function normal, value + s.e., read-out: PMM plasma t1/2 (overall elimination phase)",1.14 h
same,half-life,"[5]; human, plasma, 500 mg m-2, patient three, 500 mg m-2, hepatic function abnormal, value + s.e., read-out: PMM plasma t1/2 (overall elimination phase)",2.12 h
same,half-life,"[5]; human, plasma, patients with hepatic disease and abnormal liver function tests, mean + SEM, n = 3, P = 0.002 vs normal, read-out: PMM t1/2, group mean",2.3 h
same,half-life,"[5]; human, plasma, patients with normal liver function, mean + SEM, n = 3, read-out: PMM t1/2, group mean",1.08 h
same,AUC(0-t),"[5]; human, plasma, iv, i.v. PMM 100-300 mg m-2, n = 6, mean + SEM, read-out: PMM AUC 0-12h (converted)",72.3 µM·h
same,Area under the plasma conc. v. time curve,"[5]; patient eight, PMM dose 300 mg m-2 i.v., hepatic function abnormal",6019 IM x min
same,Area under the plasma conc. v. time curve,"[5]; patient five, PMM dose 200 mg m-2 i.v., hepatic function abnormal",7175 IM x min
same,PMM pharmacokinetics in the disposition phase (order),"[5]; patient four, 200 mg m-2, hepatic function normal",not first-order
same,Area under the plasma conc. v. time curve,"[5]; patient four, PMM dose 200 mg m-2 i.v., hepatic function normal",1694 IM x min
same,Area under the plasma conc. v. time curve,"[5]; patient one, PMM dose 300 mg m-2 i.v., hepatic function normal",6232 IM x min
same,Area under the plasma conc. v. time curve,"[5]; patient seven, PMM dose 500 mg m-2 i.v., hepatic function normal",3940 IM x min
same,Area under the plasma conc. v. time curve,"[5]; patient six, PMM dose 100 mg m-2 i.v., hepatic function normal",734 IM x min
same,Area under the plasma conc. v. time curve,"[5]; patient three, PMM dose 500 mg m-2 i.v., hepatic function abnormal",7179 IM x min
same,PMM pharmacokinetics in the disposition phase (order),"[5]; patient two, 100 mg m-2, hepatic function normal",not first-order
same,Area under the plasma conc. v. time curve,"[5]; patient two, PMM dose 100 mg m-2 i.v., hepatic function normal",317 IM x min
same,Activity relative to HMM,[6],equivalent activity
same,Minor response,"malignant tumours; 500 mg m-2, patient with squamous cell carcinoma of bronchus",One minor response
same,Complete or partial responses,"malignant tumours; 17 patients, 100-1300 mg m-2",No complete or partial responses
same,Haematological toxicity,"patients; 1.2 g/m2/day x 10, ref Goldberg et al. (1980)",reproducibly induced haematological toxicity
same,Partial response among all patients who have received PMM,"patients; of 173 patients, ref Casper et al., 1981",1
same,Minor responses among all patients who have received PMM,"patients; of 173 patients, ref Van Echo et al., 1980, Ajani et al., 1982 and the present study",7
same,Urinary excretion of drug-derived material,[7],75-85 % dose admin.
same,PMM metabolites capable of releasing formaldehyde in plasma,[8],563 to 773 µM
